Source: ChEMBL document CHEMBL5150076, “Discovery of Novel Orally Bioavailable Triazoles with Potent and Broad-Spectrum Antifungal Activity In Vitro and In Vivo” (J Med Chem, 2022)
Converted amounts (≈) assume the structure as drawn. The source made the active and inactive calls. No cut-off for these calls is given here.

Tests used:
[1] = biological target: T1, Lanosterol 14-alpha demethylase (Candida albicans (strain SC5314 / ATCC MYA-2876) (Yeast), UniProt P10613); experiment: Inhibition of CYP51 in Candida albicans SC5314 assessed as sterol level at 0.0625 ug/ml measured after 12 hrs by GC-MS analysis (reference value: 25.23%); design: scale not given: the % may be the effect or the level left; details: dose 0.0625 µg/ml
T1 sequence (P10613 whole entry): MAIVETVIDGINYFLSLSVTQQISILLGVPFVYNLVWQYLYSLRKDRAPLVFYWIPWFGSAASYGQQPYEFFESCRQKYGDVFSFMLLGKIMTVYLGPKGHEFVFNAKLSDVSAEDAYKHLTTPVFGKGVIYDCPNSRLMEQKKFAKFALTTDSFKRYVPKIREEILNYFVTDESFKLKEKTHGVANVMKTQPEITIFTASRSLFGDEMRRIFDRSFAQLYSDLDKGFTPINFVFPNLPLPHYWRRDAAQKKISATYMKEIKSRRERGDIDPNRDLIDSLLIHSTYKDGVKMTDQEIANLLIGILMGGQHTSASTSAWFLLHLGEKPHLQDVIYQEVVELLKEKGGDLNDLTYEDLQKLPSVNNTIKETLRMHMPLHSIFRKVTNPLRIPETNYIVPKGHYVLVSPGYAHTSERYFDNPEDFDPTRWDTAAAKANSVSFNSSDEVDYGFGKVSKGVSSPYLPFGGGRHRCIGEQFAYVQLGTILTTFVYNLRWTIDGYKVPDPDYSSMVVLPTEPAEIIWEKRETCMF

Candida parapsilosis [2] = experiment: Antifungal activity against Candida parapsilosis 90018; format: functional; details: Lodderomyces parapsilosis
Cryptococcus neoformans [3] = experiment: Antifungal activity against Cryptococcus neoformans H99 infected in ICR mouse assessed as median survival time at 2 mg/kg, po qd infected with fungus for 2 hrs prior to compound addition for 7 days and measured for 20 days; format: functional; details: time 20 day
Pichia kudriavzevii [4] = experiment: Antifungal activity against Candida krusei 467; format: functional
Candida parapsilosis [5] = experiment: Antifungal activity against Candida parapsilosis 22019; format: functional; details: Lodderomyces parapsilosis
Candida albicans [6] = experiment: Antifungal activity against Candida albicans SC5314 infected in ICR mouse assessed as median survival time at 0.5 mg/kg, po qd infected with fungus for 2 hrs prior to compound addition for 7 days and measured for 20 days; format: functional; details: time 20 day
Pichia kudriavzevii [7] = experiment: Antifungal activity against Candida krusei 629; format: functional
Candida albicans [8] = experiment: Antifungal activity against Candida albicans SC5314 infected in ICR mouse assessed as median survival time at 0.25 mg/kg, po qd infected with fungus for 2 hrs prior to compound addition for 7 days and measured for 20 days; format: functional; details: time 20 day
Candida albicans [9] = experiment: Antifungal activity against Candida albicans 305; format: functional
Cryptococcus neoformans [10] = experiment: Antifungal activity against Cryptococcus neoformans 32605; format: functional
Nannizzia gypsea = experiment: Antifungal activity against Microsporum gypseum; format: functional
Cryptococcus neoformans [11] = experiment: Antifungal activity against Cryptococcus neoformans H99 infected in ICR mouse assessed as delay in mortality at 0.5 to 5 mg/kg, po qd infected with fungus for 2 hrs prior to compound addition for 7 days and measured for 20 days; format: functional, organism-based; details: dose 0.5-5 mg/kg, time 20.0 day
[Candida] auris = Antifungal activity against Candida auris 791; format: functional; details: Candidozyma auris
[12] = biological target: T1, Lanosterol 14-alpha demethylase; experiment: Inhibition of CYP51 in Candida albicans SC5314 assessed as ergosterol level at 0.5 ug/ml measured after 12 hrs by GC-MS analysis (reference value: 72.58%); design: scale not given: the % may be the effect or the level left; details: at 0.5 µg/mL
[13] = Induction of hemolysis in rabbit RBC at 64 ug/ml incubated for 1 hr; format: toxicity, cell-based, Oryctolagus cuniculus, Erythrocyte; details: red blood cells, dose 64 µg/ml, read-out: Activity

Q: For `C[C@@H](c1cn(-c2ccc(Cl)cc2F)nn1)[C@](O)(Cn1cncn1)c1ccc(F)cc1F`, which Activity [1] is on record?
A: 3.82%

Q: What about the MIC (Candida parapsilosis [2]) of the same compound?
A: ≤ 0.0313 µg/mL

Q: And the Time (Cryptococcus neoformans [3])?
A: 8.5 days

Q: What about the MIC (Pichia kudriavzevii [4]) of the same compound?
A: 0.125 µg/mL (≈ 0.278 µM)

Q: And the MIC (Candida parapsilosis [5])?
A: 0.0625 µg/mL (≈ 0.139 µM)

Q: And the Time (Candida albicans [6])?
A: 17 days

Q: What about the MIC (Pichia kudriavzevii [7]) of the same compound?
A: 0.25 µg/mL (≈ 0.557 µM)

Q: And the Time (Candida albicans [8])?
A: 13.5 days

Q: And the MIC (Candida albicans [9])?
A: 8 µg/mL (≈ 17.8 µM)

Q: What about the MIC (Cryptococcus neoformans [10]) of the same compound?
A: 0.0156 µg/mL (≈ 0.0348 µM)

Q: What about the MIC (Nannizzia gypsea) of the same compound?
A: 1 µg/mL (≈ 2.23 µM)

Q: What about the Activity (Cryptococcus neoformans [11]) of the same compound?
A: Active

Q: And the MIC ([Candida] auris)?
A: 1 µg/mL (≈ 2.23 µM)

Q: What about the Activity [12] of the same compound?
A: 74.56%

Q: What about the hemolysis at 1 h, 64 ug/ml [13] of the same compound?
A: 0.3%
